Here are results for one sequence from US20200326333A1, “DIAGNOSIS AND TREATMENT OF AUTOIMMUNE DISEASES” (OP-T LLC, priority 2019, published 2020).

Assay [1] deals with integrins from CD4hi cells (CD4+CD40−). The assay is described as follows: KGYY15 immunoprecipitation with western blot, CD4hi cells. It counts as binding, mouse. Particulars: αL more prominently from autoimmune NOD and αD from control Balb/c cells. The source says:
(§1) FIG. 10A, FIG. 10B, FIG. 10C-1, FIG. 10C-2, FIG. 10D, FIG. 10E, FIG. 10F, FIG. 10G, FIG. 10H-1, FIG. 10H-2, FIG. 10I, FIG. 10J-1, FIG. 10J-2, and FIG. 10J-3 provide blots, tables, graphs, charts, and plots related to additional biomarkers, receptors, and peptides that may bind thereto. The blots of FIG. 10A, FIG. 10B, FIGS. 10C-1, 10C-2 and FIG. 10D provide immunoprecipitation results of western blots. […] FIG. 10E provides a table of when KGYY15 eluates from mouse PBMR, MHCII+, CD4hi or CD4lo cells in protein sequencing, for integrins and proteins listed in FIG. 10E. FIG. 10F provides results of a western blot when 3 different CD40 antibodies were used in immunoprecipitations on cells that had been incubated with mKGYY15-biotin prior to lysis. FIG. 10H-1 and FIG. 10H-2, FIG. 10I, and FIG. 10J-1, FIG. 10J-2, and FIG. 10J-3 provide additional binding tests and studies that were done regarding peptides of KGYY-4, KGYY-6, and KGYY6-Val.
For orientation: A western blot detects proteins with antibodies after separation by electrophoresis.

The subject of assay [2] is integrins from CD4lo cells (CD4loCD40+; Th40). The assay is described as follows: KGYY15 immunoprecipitation with western blot, CD4lo cells. It counts as binding, mouse.
Text: as §1

For the sequence “VLQWAKKGYYTMKSN [KGYY15, 15-mer CD154-derived peptide around the KGYY core]”, the “integrins immunoprecipitated from CD4hi cells” value in assay [1] was “immunoprecipitated primarily αL, αD and β2”. In assay [2] (cell population not stated), the β3 immunoprecipitation entry is reported as “not β3”. For the same sequence, the “integrins immunoprecipitated from CD4lo cells” value in assay [2] (more prominently from autoimmune NOD cells than from control Balb/c cells) is “immunoprecipitated primarily αM, αD and β2”. The CD11a immunoprecipitation entry in assay [2] (several differentially glycosylated (presumably) bands) was “immunoprecipitated but only from NOD CD4lo cells”.
